Patent publication KR20080020768A, “항균 효과를 갖는 목단피의 추출물로부터 분리된 신규구조의 6‘-오-바닐릴옥시파에오니플로린 화합물을유효성분으로 함유하는 조성물” (priority 2006, dated 2008)
Values after ≈ are worked out from the molar mass of the structure shown.

Legend:
[1] = system: Shigella flexeneri JOL378; assay: Minimum inhibitory concentration (MIC) measurement; format: cell-based; settings: JOL378, 24 h, read-out: minimum inhibitory concentration (MIC)
[2] = system: Vibrio cholerae O1 JOL375; assay: Minimum inhibitory concentration (MIC) measurement; format: cell-based; settings: O1JOL375, 24 h, read-out: minimum inhibitory concentration (MIC)
E. coli O157 ATCC 43890 = assay: Minimum inhibitory concentration (MIC) measurement; format: cell-based; settings: Escherichia coli, ATCC43890, 24 h, read-out: minimum inhibitory concentration (MIC)
[3] = system: Shigrlla dysenteriae JOL377; assay: Minimum inhibitory concentration (MIC) measurement; format: cell-based; settings: 24 h, read-out: minimum inhibitory concentration (MIC)
[4] = system: MRSA 104 human isolate [사람 분리주]; assay: Minimum inhibitory concentration (MIC) measurement; format: cell-based, methicillin-resistant S. aureus; settings: Staphylococcus aureus, 24 h, read-out: minimum inhibitory concentration (MIC)
[5] = system: Vibrio cholerae O139 JOL376; assay: Minimum inhibitory concentration (MIC) measurement; format: cell-based; settings: O139JOL376, 24 h, read-out: minimum inhibitory concentration (MIC)
MRSA ATCC 700698 = assay: Minimum inhibitory concentration (MIC) measurement; format: cell-based, methicillin-resistant S. aureus; settings: Staphylococcus aureus, 24 h, read-out: minimum inhibitory concentration (MIC)
[6] = system: Salmonella paratyphi A JOL381; assay: Minimum inhibitory concentration (MIC) measurement; format: cell-based; settings: Salmonella enterica, 24 h, read-out: minimum inhibitory concentration (MIC)
[7] = system: Shigella dysenteriae ATCC 49557; assay: Minimum inhibitory concentration (MIC) measurement; format: cell-based; settings: ATCC49557, 24 h, read-out: minimum inhibitory concentration (MIC)
[8] = system: MRSA 6 animal (chicken) isolate [동물(닭) 분리주]; assay: Minimum inhibitory concentration (MIC) measurement; format: cell-based, methicillin-resistant S. aureus; settings: Staphylococcus aureus, 24 h, read-out: minimum inhibitory concentration (MIC)
[9] = system: E. coli K88 standard strain (E-126) [수과연표준균주 (E-126)]; assay: Minimum inhibitory concentration (MIC) measurement; format: cell-based; settings: Escherichia coli, 24 h, read-out: minimum inhibitory concentration (MIC)
[10] = system: all 18 causative bacteria of zoonotic infectious diseases [인수 공통 감염병을 유발하는 원인균 18종 모두]; assay: Minimum inhibitory concentration (MIC) measurement, all 18 strains; format: cell-based; settings: 24 h; range over all 18 strains
E. coli O157 ATCC 35150 = assay: Minimum inhibitory concentration (MIC) measurement; format: cell-based; settings: Escherichia coli, ATCC35150, 24 h, read-out: minimum inhibitory concentration (MIC)
[11] = system: Salmonella enteritidis standard strain (Sal-36) [수과연표준균주 (Sal-36)]; assay: Minimum inhibitory concentration (MIC) measurement; format: cell-based; settings: Salmonella enterica, 24 h, read-out: minimum inhibitory concentration (MIC)
[12] = system: Salmonella gallinarium standard strain [수과연표준균주]; assay: Minimum inhibitory concentration (MIC) measurement; format: cell-based; settings: 24 h, read-out: minimum inhibitory concentration (MIC)
[13] = system: E. coli O157 animal isolate [동물 분리주]; assay: Minimum inhibitory concentration (MIC) measurement; format: cell-based; settings: Escherichia coli, 24 h, read-out: minimum inhibitory concentration (MIC)
[14] = system: Salmonella typhimurium standard strain (Sal-13) [수과연표준균주 (Sal-13)]; assay: Minimum inhibitory concentration (MIC) measurement; format: cell-based; settings: Salmonella enterica, 24 h, read-out: minimum inhibitory concentration (MIC)
Salmonella typhi JOL380 = assay: Minimum inhibitory concentration (MIC) measurement; format: cell-based; settings: Salmonella enterica, 24 h, read-out: minimum inhibitory concentration (MIC)
[15] = system: E. coli K99 standard strain (E-125) [수과연표준균주 (E-125)]; assay: Minimum inhibitory concentration (MIC) measurement; format: cell-based; settings: Escherichia coli, 24 h, read-out: minimum inhibitory concentration (MIC)

COc1cc(C(=O)OCC2OC(OC34CC5C6(O)CC3(C)OC(O6)C54COC(=O)c3ccc(O)cc3)C(O)C(O)C2O)ccc1O (centres unmarked) [6′-오-바닐릴옥시파에오니플로린, 6'-O-vanillyloxypaeoniflorin]
MIC [1]: 200 µg/mL (≈ 309 µM)
MIC [2]: 100 µg/mL (≈ 155 µM)
MIC (E. coli O157 ATCC 43890): 200 µg/mL (≈ 309 µM)
MIC [3]: 200 µg/mL (≈ 309 µM)
MIC [4]: 200 µg/mL (≈ 309 µM)
MIC [5]: 100 µg/mL (≈ 155 µM)
MIC (MRSA ATCC 700698): 200 µg/mL (≈ 309 µM)
MIC [6]: 200 µg/mL (≈ 309 µM)
MIC [7]: 500 µg/mL (≈ 773 µM)
MIC [8]: 300 µg/mL (≈ 464 µM)
MIC [9]: 200 µg/mL (≈ 309 µM)
MIC [10]: 100 to 500 µg/mL (≈ 155 to 773 µM)
MIC (E. coli O157 ATCC 35150): 300 µg/mL (≈ 464 µM)
MIC [11]: 200 µg/mL (≈ 309 µM)
MIC [12]: 200 µg/mL (≈ 309 µM)
MIC [13]: 200 µg/mL (≈ 309 µM)
MIC [14]: 200 µg/mL (≈ 309 µM)
MIC (Salmonella typhi JOL380): 200 µg/mL (≈ 309 µM)

NCC1OC(OC2C(N)CC(N)C(OC3OC(CO)C(O)C(N)C3O)C2O)C(O)C(O)C1O (centres unmarked) [Kanamycin A]
MIC [1]: 10 µg/mL (≈ 20.6 µM)
MIC [2]: > 100 µg/mL
MIC (E. coli O157 ATCC 43890): 10 µg/mL (≈ 20.6 µM)
MIC [3]: > 100 µg/mL
MIC [4]: > 100 µg/mL
MIC [5]: 50 µg/mL (≈ 103 µM)
MIC (MRSA ATCC 700698): > 100 µg/mL
MIC [6]: > 100 µg/mL
MIC [7]: > 100 µg/mL
MIC [8]: 50 µg/mL (≈ 103 µM)
MIC [9]: 50 µg/mL (≈ 103 µM)
MIC (E. coli O157 ATCC 35150): 10 µg/mL (≈ 20.6 µM)
MIC [11]: 50 µg/mL (≈ 103 µM)
MIC [12]: 50 µg/mL (≈ 103 µM)
MIC [13]: > 100 µg/mL
MIC [14]: 50 µg/mL (≈ 103 µM)
MIC (Salmonella typhi JOL380): 50 µg/mL (≈ 103 µM)

CC1(C)S[C@@H]2[C@H](NC(=O)Cc3ccccc3)C(=O)N2[C@H]1C(=O)O [Penicillin G]
MIC [1]: > 100 µg/mL
MIC [2]: > 100 µg/mL
MIC (E. coli O157 ATCC 43890): 50 µg/mL (≈ 150 µM)
MIC [3]: > 100 µg/mL
MIC [4]: > 100 µg/mL
MIC [5]: 1 µg/mL (≈ 2.99 µM)
MIC [15]: 50 µg/mL (≈ 150 µM)
MIC (MRSA ATCC 700698): 100 µg/mL (≈ 299 µM)
MIC [6]: > 100 µg/mL
MIC [7]: > 100 µg/mL
MIC [8]: > 100 µg/mL
MIC [9]: 100 µg/mL (≈ 299 µM)
MIC (E. coli O157 ATCC 35150): 50 µg/mL (≈ 150 µM)
MIC [11]: 50 µg/mL (≈ 150 µM)
MIC [12]: 10 µg/mL (≈ 29.9 µM)
MIC [13]: > 100 µg/mL
MIC [14]: 10 µg/mL (≈ 29.9 µM)
MIC (Salmonella typhi JOL380): > 100 µg/mL
